The results in this text go back to patent US9029378B2, “Substituted bicyclic aromatic carboxamide and urea compounds as vanilloid receptor ligands” (Gruenenthal GmbH, priority 2011, dated 2015).

One may read the inhibition as the percentage by which the read-out fell short of the control. As usually defined, the Ki is the dissociation constant of the complex between target and ligand, obtained from inhibition or displacement.

T1 sequence (Q8NER1 whole entry): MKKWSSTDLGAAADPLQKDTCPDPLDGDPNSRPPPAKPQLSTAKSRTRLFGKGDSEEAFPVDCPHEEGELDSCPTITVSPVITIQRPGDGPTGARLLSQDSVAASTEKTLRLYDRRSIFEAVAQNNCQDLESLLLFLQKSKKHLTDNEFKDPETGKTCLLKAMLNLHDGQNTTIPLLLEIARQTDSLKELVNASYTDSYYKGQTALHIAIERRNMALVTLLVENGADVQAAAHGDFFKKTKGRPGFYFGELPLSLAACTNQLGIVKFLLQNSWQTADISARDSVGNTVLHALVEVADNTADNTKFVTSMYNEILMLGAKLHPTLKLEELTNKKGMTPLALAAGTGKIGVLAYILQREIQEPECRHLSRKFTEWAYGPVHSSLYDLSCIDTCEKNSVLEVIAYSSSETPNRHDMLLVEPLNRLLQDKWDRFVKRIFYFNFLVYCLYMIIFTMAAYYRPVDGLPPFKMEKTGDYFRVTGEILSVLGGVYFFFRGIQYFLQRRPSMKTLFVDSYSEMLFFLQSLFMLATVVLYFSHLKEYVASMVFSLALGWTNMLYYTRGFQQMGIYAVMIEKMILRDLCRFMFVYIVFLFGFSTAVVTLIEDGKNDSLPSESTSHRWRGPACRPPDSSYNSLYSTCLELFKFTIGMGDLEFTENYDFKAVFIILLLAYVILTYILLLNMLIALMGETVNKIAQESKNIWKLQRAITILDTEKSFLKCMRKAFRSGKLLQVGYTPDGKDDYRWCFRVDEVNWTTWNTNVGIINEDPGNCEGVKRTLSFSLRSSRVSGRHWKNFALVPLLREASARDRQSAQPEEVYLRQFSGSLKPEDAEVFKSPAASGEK

One test concerns the target T1, vanilloid receptor 1 (VR1/TRPV1 receptor) (Homo sapiens, UniProt Q8NER1).
T1 construct: expressed in transfected cells; host or cells: CHO K1
The test is described as follows: Functional testing on the vanilloid receptor 1 (FLIPR Ca2+ influx assay, capsaicin). The settings on record: @0.1 μM; Cap=capsaicin; read-out: inhibition (as a percentage), (f) (human being) Cap. In kind it is cell-based, human being. How it is done: Furthermore, preference may be given to compounds according to the invention that cause a 50 percent displacement of capsaicin, which is present at a concentration of 100 nM, in a FLIPR assay with CHO K1 cells which were transfected with the human VR1 gene at a concentration of less than 2,000 nM, preferably less than 1,000 nM, particularly preferably less than 300 nM, most particularly preferably less than 100 nM, even more preferably less than 75 nM, additionally preferably less than 50 nM, most preferably less than 10 nM.
In the process, the Ca^2+ influx is quantified in the FLIPR assay with the aid of a Ca^2+-sensitive dye (type Fluo-4, Molecular Probes Europe BV, Leiden, the Netherlands) in a fluorescent imaging plate reader (FLIPR, Molecular Devices, Sunnyvale, USA), as described hereinafter.
Pharmacological Methods I. Functional Testing Carried Out on the Vanilloid Receptor 1 (VR1/TRPV1 Receptor) […]
The number of cells in the suspension is set to 3×10^5 per mL and 150 μL of this suspension are in each case introduced into a recess in the cell culture plates coated as described hereinbefore. In the incubator the plates are left for two to three days at 37° C., 5% by volume of CO2 and 95% relative humidity. Subsequently, the cells are loaded with 2 μM of Fluo-4 and 0.01% by volume of Pluronic F127 (Molecular Probes Europe BV, Leiden, the Netherlands) in HBSS buffer (Hank's buffered saline solution, Gibco Invitrogen GmbH, Karlsruhe, Germany) for 30 min at 37° C., washed 3 times with HBSS buffer and after further incubation for 15 minutes at room temperature used for Ca^2+ measurement in a FLIPR assay. The Ca^2+-dependent fluorescence is in this case measured before and after the addition of substances (λex=488 nm, λem=540 nm). Quantification is carried out by measuring the highest fluorescence intensity (FC, fluorescence counts) over time.
The FLIPR protocol consists of 2 substance additions. First the compounds to be tested (10 μM) are pipetted onto the cells and the Ca^2+ influx is compared with the control (capsaicin 10 μM). This provides the result in % activation based on the Ca^2+ signal after the addition of 10 μM of capsaicin (CP). After 5 minutes' incubation, 100 nM of capsaicin are applied and the Ca^2+ influx is also determined.
Desensitising agonists and antagonists lead to suppression of the Ca^2+ influx. The % inhibition is calculated compared to the maximum achievable inhibition with 10 μM of capsazepine. Triple analyses (n=3) are carried out and repeated in at least 3 independent experiments (N=4). Starting from the percentage displacement caused by different concentrations of the compounds to be tested of general formula I, IC50 inhibitory concentrations which cause a 50-percent displacement of capsaicin were calculated. Ki values for the test substances were obtained by conversion by means of the Cheng-Prusoff equation (Cheng, Prusoff; Biochem. Pharmacol. 22, 3099-3108, 1973).
The affinity of the compounds of to the invention for the vanilloid receptor 1 (VR1/TRPV1 receptor) was determined as described hereinbefore (pharmacological method I). The compounds of the invention display outstanding affinity to the VR1/TRPV1 receptor (Table 2). In Table 2 the abbreviations below have the following meanings: • Cap=capsaicin • AG=agonist • NE=no effect
The value after the “@” symbol indicates the concentration at which the inhibition (as a percentage) was respectively determined.
Turning to `CC1CCN(c2nc(C(F)(F)F)ccc2CNC(=O)Nc2cccc3cc[nH]c23)CC1` [Example 36, 1-(1H-Indol-7-yl)-3-((2-(4-methylpiperidin-1-yl)-6-(trifluoromethyl)pyridin-3-yl)methyl)urea], the inhibition at 0.1 µM worked out at 37%.

Still in this test, the particulars now being: @1 μM; Cap=capsaicin; read-out: inhibition (as a percentage), (f) (human being) Cap.
Consider `CC1CCN(c2nc(C(F)(F)F)ccc2CNC(=O)Nc2ccc3ncccc3c2)CC1` [Example 69, 1-((2-(4-Methylpiperidin-1-yl)-6-(trifluoromethyl)pyridin-3-yl)methyl)-3-(quinolin-6-yl)urea], for which the inhibition at 1 µM amounted to 40%.

The test is the same for the next values; noted with them: Cap=capsaicin (100 nM); Ki from IC50 by Cheng-Prusoff equation; read-out: (f) Ki (human being) [nM] Cap.
On to `COc1nc(Cl)cc2c(NC(=O)NCc3ccc(C(F)(F)F)nc3N3CCC(C)CC3)cccc12` [Example 82, 1-(3-Chloro-1-methoxyisoquinolin-5-yl)-3-((2-(4-methylpiperidin-1-yl)-6-(trifluoromethyl)pyridin-3-yl)methyl)urea], for which the Ki was 1 nM.

As to `COc1nccc2c(NC(=O)NCc3ccc(C(F)(F)F)nc3N3CCC(C)CC3)cccc12` [Example 80, 1-(1-Methoxyisoquinolin-5-yl)-3-((2-(4-methylpiperidin-1-yl)-6-(trifluoromethyl)pyridin-3-yl)methyl)urea], the Ki amounted to 8 nM.

Regarding `CC1CCN(c2nc(C(F)(F)F)ccc2CNC(=O)Nc2ccc3cncnc3c2)CC1` [Example 91, 1-((2-(4-Methylpiperidin-1-yl)-6-(trifluoromethyl)pyridin-3-yl)methyl)-3-(quinazolin-7-yl)urea], the Ki worked out at 8 nM.

As for `CN(C)C1(c2ccccc2)CCN(c2nc(C(F)(F)F)ccc2CNC(=O)Nc2cccc3cnccc23)CC1` [Example 77, 1-((2-(4-(Dimethylamino)-4-phenylpiperidin-1-yl)-6-(trifluoromethyl)pyridin-3-yl)methyl)-3-(isoquinolin-5-yl)urea], the Ki was determined as 4 nM.

Take `CC1CCN(c2nc(C(F)(F)F)ccc2CNC(=O)Nc2cc(F)cc3[nH]ncc23)CC1` [Example 51, 1-(6-Fluoro-1H-indazol-4-yl)-3-((2-(4-methylpiperidin-1-yl)-6-(trifluoromethyl)pyridin-3-yl)methyl)urea]: the Ki came out at 3 nM.

For `O=C(NCc1ccc(C(F)(F)F)cc1C1CCCC1)Nc1cc(F)cc2[nH]ncc12` [Example 54, 1-(2-Cyclopentyl-4-(trifluoromethyl)benzyl)-3-(6-fluoro-1H-indazol-4-yl)urea], the Ki worked out at 7 nM.

For “1-(6,7-Dihydro-5H-cyclopenta[b]pyridin-3-yl)-3-((2-(4-methylpiperidin-1-yl)-6-(trifluoromethyl)pyridin-3-yl)methyl)urea [Example 1]”, the Ki was found to be 9 nM.

In the case of `CC1CCN(c2nc(C(F)(F)F)ccc2CNC(=O)Nc2cccc3[nH]ccc23)CC1` [Example 38, 1-(1H-Indol-4-yl)-3-((2-(4-methylpiperidin-1-yl)-6-(trifluoromethyl)pyridin-3-yl)methyl)urea], the Ki is 1 nM.

Regarding `CC(C)(C)COc1nc(C(F)(F)F)ccc1CNC(=O)Nc1cccc2ncccc12` [Example 66, 1-((2-(Neopentyloxy)-6-(trifluoromethyl)pyridin-3-yl)methyl)-3-(quinolin-5-yl)urea], the Ki came to 2 nM.

Consider `CN(C)C1(c2ccccc2)CCN(c2nc(C(F)(F)F)ccc2CNC(=O)Nc2cccc3[nH]ccc23)CC1` [Example 39, 1-((2-(4-(Dimethylamino)-4-phenylpiperidin-1-yl)-6-(trifluoromethyl)pyridin-3-yl)methyl)-3-(1H-indol-4-yl)urea], for which the Ki stood at 8 nM.

Turning to `CC1CCN(c2nc(C(F)(F)F)ccc2CNC(=O)Nc2ccc3[nH]ccc3c2)CC1` [Example 23, 1-(1H-Indol-5-yl)-3-((2-(4-methylpiperidin-1-yl)-6-(trifluoromethyl)pyridin-3-yl)methyl)urea], the Ki was determined as 13 nM.

Turning to `CC1CCN(c2nc(C(F)(F)F)ccc2CNC(=O)Nc2cccc3c2ccn3C)CC1` [Example 40, 1-(1-Methyl-1H-indol-4-yl)-3-((2-(4-methylpiperidin-1-yl)-6-(trifluoromethyl)pyridin-3-yl)methyl)urea], the Ki is 5 nM.
